Experimental data taken from US9936701B2, “Herbicidal compounds” (Syngenta Participations AG, priority 2013, dated 2018).

What was measured:
[1] = tested on: a variety of test species; assay: Pre-emergence herbicidal activity (glasshouse, sprayed one day after sowing, evaluated after 13 days); assay type: in vivo; parameters: key: 5=total damage to plant; 0=no damage to plant; settings: application pre-emergence, rate 1000 g/Ha, scale 0-5
How it was run: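 Seeds sown in standard soil in pots, sprayed one day later (pre-emergence) with aqueous solution from acetone/water (50:50) formulation with 0.5% Tween 20. Glasshouse at 24/16 °C day/night, 14 h light, 65% humidity, watered twice daily. Damage scored after 13 days, 0 (none) to 5 (total).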

[2] = tested on: a variety of test species; assay: Post-emergence herbicidal activity (glasshouse, sprayed after 8 days cultivation, evaluated after 13 days); assay type: in vivo; parameters: key: 5=total damage to plant; 0=no damage to plant; settings: rate 1000 g/Ha, scale 0-5
How it was run: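 Foliar application to 8-day-old plants using a 0.5% Tween 20 acetone/water carrier; phytotoxicity is scored visually from 0 to 5 after 13 days of growth at 24/16 °C day/night.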

SMILES	melting point [°C]	Pre-emergence herbicidal damage score, ABUTH [1]	Pre-emergence herbicidal damage score, ALOMY [1]	Pre-emergence herbicidal damage score, AMARE [1]	Pre-emergence herbicidal damage score, ECHCG [1]	Pre-emergence herbicidal damage score, SETFA [1]	Pre-emergence herbicidal damage score, ZEAMX [1]	ABUTH (Abutilon theophrasti) damage score, application post-emergence [2]	ALOMY (Alopecurus myosuroides) damage score, application post-emergence [2]	AMARE (Amaranthus retroflexus) damage score, application post-emergence [2]	ECHCG (Echinochloa crus-galli) damage score, application post-emergence [2]	SETFA (Setaria faberi) damage score, application post-emergence [2]	ZEAMX (Zea mays) damage score, application post-emergence [2]
CC1=C(Cl)C(=O)N(c2cc(C(C)(C)C)on2)C1O (stereo not shown) [A2, 1-(5-tert-butylisoxazol-3-yl)-4-chloro-2-hydroxy-3-methyl-2H-pyrrol-5-one]	156 to 158	5	3	5	5	5	3	5	5	5	5	5	5
CC1=C(Cl)C(=O)N(c2cc(C(C)C)on2)C1O (stereo not shown) [A11]	126 to 128	5	4	5	5	5	2	5	5	5	5	5	5
CC1=C(Cl)C(=O)N(c2cc(CC(C)C)on2)C1O (stereo not shown) [A12]	138 to 140	5	4	4	5	5	1	5	5	5	5	5	4
CC1=C(Cl)C(=O)N(c2noc(C(C)(C)C)c2F)C1O (stereo not shown) [A19, 1-(5-tert-butyl-4-fluoro-isoxazol-3-yl)-4-chloro-2-hydroxy-3-methyl-2H-pyrrol-5-one]	98 to 100	–	4	5	5	5	–	–	5	5	5	5	–
CC1=C(Cl)C(=O)N(c2noc(C(C)(C)C)c2C)C1O (stereo not shown) [A20, 1-(5-tert-butyl-4-methyl-isoxazol-3-yl)-4-chloro-2-hydroxy-3-methyl-2H-pyrrol-5-one]	134 to 136	–	4	1	5	5	–	–	5	4	5	5	–
CC1=C(Cl)C(=O)N(c2cc(C3CCC3)on2)C1O (stereo not shown) [A21]	130 to 132	–	3	5	5	3	–	–	5	5	5	5	–
COC1=C(C)C(=O)N(c2noc(C(C)(C)C)c2C#N)C1O (stereo not shown) [G7]	–	5	4	5	5	5	4	5	5	5	5	5	5

Continued, in another order:

melting point [°C]	SMILES	Pre-emergence herbicidal damage score, ABUTH [1]	Pre-emergence herbicidal damage score, ALOMY [1]	Pre-emergence herbicidal damage score, AMARE [1]	Pre-emergence herbicidal damage score, ECHCG [1]	Pre-emergence herbicidal damage score, SETFA [1]	Pre-emergence herbicidal damage score, ZEAMX [1]	ABUTH (Abutilon theophrasti) damage score, application post-emergence [2]	ALOMY (Alopecurus myosuroides) damage score, application post-emergence [2]	AMARE (Amaranthus retroflexus) damage score, application post-emergence [2]	ECHCG (Echinochloa crus-galli) damage score, application post-emergence [2]	SETFA (Setaria faberi) damage score, application post-emergence [2]	ZEAMX (Zea mays) damage score, application post-emergence [2]
174 to 176	CC1=C(Cl)C(=O)N(c2cc(C3CC3)on2)C1O (stereo not shown) [A22]	5	4	4	5	5	1	5	5	5	5	5	4
158 to 160	CC1=C(Cl)C(=O)N(c2noc(C(C)(C)C)c2Br)C1O (stereo not shown) [A23, 1-(4-bromo-5-tert-butyl-isoxazol-3-yl)-4-chloro-2-hydroxy-3-methyl-2H-pyrrol-5-one]	5	4	5	5	3	3	5	5	5	5	5	4
143 to 145	CC1=C(Cl)C(=O)N(c2noc(C(C)(C)C)c2Cl)C1O (stereo not shown) [A24]	5	4	4	5	4	2	5	5	5	5	5	4
141 to 143	CC1=C(Cl)C(=O)N(c2cc(C3CCCCC3)on2)C1O (stereo not shown) [A25]	3	2	5	2	0	0	5	3	4	4	5	1
177 to 178	CC1=C(Cl)C(=O)N(c2cc(C3(C)CC3)on2)C1O (stereo not shown) [A26]	5	4	5	5	5	3	5	4	5	5	5	5
107 to 109	C=CCC(C)(C)c1cc(N2C(=O)C(Cl)=C(C)C2O)no1 (stereo not shown) [A28]	5	4	5	5	4	2	5	5	5	5	5	4
169 to 171	CC1=C(Cl)C(=O)N(c2cc(C(C)(C)C(N)=O)on2)C1O (stereo not shown) [A67, 2-[3-(4-chloro-2-hydroxy-3-methyl-5-oxo-2H-pyrrol-1-yl)isoxazol-5-yl]-2-methyl-propanamide]	–	–	–	–	–	–	–	–	–	–	–	–
